Assay results: ChEMBL document CHEMBL1144122, “New scalaranes from the nudibranch Glossodoris atromarginata and its sponge prey” (1999)
Activity calls are given as the source filed them. The calls are words filed in the database; no cut-off is given here.

Legend:
[1] = organism: Homo sapiens; experiment: (§1) Cytotoxicity against human thyroid carcinoma cells assessed as mortality; format: functional
[2] = as §1; format: functional

Compound	Activity [1]	Activity [2]
CC1(C)CCC[C@]2(C)[C@H]3C[C@@H](O)[C@]4(C)[C@@H]5C(=CC[C@H]4[C@]3(C)CC[C@@H]12)CO[C@H]5O	inactive	
CC(=O)O[C@@H]1OC=C2[C@@H](OC(C)=O)C[C@H]3[C@]4(C)CC[C@H]5C(C)(C)CCC[C@]5(C)[C@H]4C[C@@H](O)[C@]3(C)[C@H]21 [HETERONEMIN]		30%
CC1(C)CCC[C@]2(C)[C@H]3CC(=O)[C@]4(C)[C@@H]5C(=CC[C@H]4[C@]3(C)CC[C@@H]12)CO[C@H]5O		25%
